Measured values taken from patent US11084783B2, “O-alkyl-benzylideneguanidine derivatives and therapeutic use for the treatment of disorders associated with an accumulation of misfolded proteins” (INFLECTIS BIOSCIENCE, priority 2014, dated 2021).

Legend:
Assay type in all cases: cell-based
INS1 insulinoma cell = test: INS1 cell line cytoprotection from ER stress (tunicamycin); details: 6 hour exposure to tunicamycin 2.5 μg/mL, different concentrations, viability 72h
Method: Cells were plated in 96 well plates at a density of 0.5.10^6 cells/mL for Min6 cell line, 0,4.10^6 cells/mL for INS1 cell line the day before the treatment. ER stress was elicited by addition of 2.5 μg/mL tunicamycin (Sigma Aldrich) together with phosphatases inhibitors. Media were changed 6h later with fresh media and the cytoprotection was maintained by the addition of phosphatases inhibitors. Cell viability was assessed by measuring the reduction of WST-8 into formazan using Cell Counting Kit-8 (Sigma) according to the supplier's recommendation, 72h after tunicamycin treatment.

HeLa cells = test: Cytoprotection from ER stress (tunicamycin), cell viability by WST-8; parameters: key to Cytoprotection from ER stress compared to guanabenz: +: lower cytoprotective effect compared to Guanabenz; ++: similar cytoprotective effect compared to Guanabenz; +++: higher cytoprotective effect compared to Guanabenz; details: for Cytoprotection from ER stress compared to guanabenz: HeLa cells, 6 hour exposure to tunicamycin 5 μg/mL, compounds 0.5-10 μM, viability 48 h or 72 h
Source text: Cytoprotection against ER stress can be measured by a suitable assay. For example, cytoprotection can be measured in HeLa cells in which ER stress is elicited by the addition of media containing tunicamycin, a mixture of homologous nucleoside antibiotics that inhibits the UDP-HexNAc: polyprenol-P HexNAc-1-P family of enzymes and is used to induce unfolded protein response. Cell viability can be detected in the presence and absence of inhibitor compounds after a set period of time, by measuring the reduction of WST-8 into formazan using a standard cell viability kit (such as Cell Viability Counting Kit-8 from Dojindo). Cytoprotection from ER stress is measured in terms of the percentage increase in viable cells (relative to control) after ER stress. Further details of a suitable assay are set forth in the accompanying Examples section.
This assay is described in Tsaytler et al. (Science 2011). HeLa Cells were cultured in Eagle's Minimum Essential Medium (EMEM) supplemented with Glutamine, Sodium Pyruvate, Non-Essential Amino Acids, Penicillin and Streptomycin containing 10% Foetal Bovine Serum (FBS), at 37° C. in 5% CO2 atmosphere. Cells were plated in 96 well plates at a density of 17,000 cells/mL the day before the treatment. ER stress was elicited by addition of 5 μg/mL tunicamycin (Sigma-Aldrich) together with PPP1R15A inhibitors (0.5-10 μM). Media were changed 6h later with fresh media and the cytoprotection was maintained by the addition of PPP1R15A inhibitors (0.5-10 μM). Cell viability was assessed by measuring the reduction of WST-8 into formazan using Cell Counting Kit-8 (Sigma) according to the supplier's recommendation, 48 h or 72h after tunicamycin treatment. Cytoprotection from ER stress is measured in terms of cytoprotective potency effect compared to the reference compound Guanabenz (Tsaytler et al., Science 2011) after ER stress: • ‘+’ no cytoprotective effect; • ‘+’ lower cytoprotective effect compared to Guanabenz; • ‘++’ similar cytoprotective effect compared to Guanabenz; • ‘+++’ higher cytoprotective effect compared to Guanabenz.
Table 1 summarizes the results of cytoprotective effect of different compounds of the invention, compared to guanabenz, after the stress induced by a 6 hour exposure of tunicamycin.

human alpha2A receptor = molecular target: T1, human alpha2A receptor (Homo sapiens, UniProt P08913); test: Functional GPCR assay for adrenergic α2A receptor (CellKey detection method); details: agonist activity, CHO cells expressing human alpha2A receptor, impedance (CellKey); read-out: Functional adrenergic alpha2 receptor assay EC50
T1 construct: CHO cells endogenously expressing human alpha2A receptor; endogenous in cells; host or cells: CHO cells
T1 sequence (P08913 1-465): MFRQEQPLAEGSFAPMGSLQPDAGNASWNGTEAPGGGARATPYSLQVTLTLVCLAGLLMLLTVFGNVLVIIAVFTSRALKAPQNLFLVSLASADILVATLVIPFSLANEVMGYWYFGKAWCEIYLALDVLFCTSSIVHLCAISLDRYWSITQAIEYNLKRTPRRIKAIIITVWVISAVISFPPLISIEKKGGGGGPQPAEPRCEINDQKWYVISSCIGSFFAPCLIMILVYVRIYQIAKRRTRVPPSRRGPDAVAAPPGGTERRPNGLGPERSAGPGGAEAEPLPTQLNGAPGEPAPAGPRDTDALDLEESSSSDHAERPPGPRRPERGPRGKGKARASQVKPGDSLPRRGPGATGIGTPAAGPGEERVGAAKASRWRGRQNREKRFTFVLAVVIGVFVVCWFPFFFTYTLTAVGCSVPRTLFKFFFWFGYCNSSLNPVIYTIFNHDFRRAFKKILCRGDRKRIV
Method: The agonist activity of compounds was evaluated on CHO cells […] expressing human alpha2A receptor and was determined by measuring their effects on impedance modulation using the CellKey detection method. Cells were seeded onto 96-well plate at density of 6×10^4 cells/well in HBSS buffer (Invitrogen)+20 mM HEPES (Invitrogen) with 0.1% BSA and are allowed to equilibrate for 60 min at 28° C. before the start of the experiment. Plates were placed onto the system and measurements were made at a temperature of 28° C. Solutions were added simultaneously to all 96 wells using an integrated fluidics system: HBSS (basal control), reference agonist at 100 nM (stimulated control), reference agonist (EC50 determination) or the test compounds. Impedance measurements are monitored for 10 minutes after ligand addition. The standard reference agonist is epinephrine, which is tested in each experiment at several concentrations to generate a concentration-response curve from which its EC50 value is calculated.
Dose-response data from test compounds were analysed with Hill software using non-linear regression analysis of the concentration-response curves generated with mean replicate values using Hill equation curve fitting.

| EC50 (human alpha2A receptor) [µM] | SMILES | prevention of INS1 insulinoma cell death (FIG. 8) (INS1 insulinoma cell) | Cytoprotection from ER stress compared to guanabenz (HeLa cells) | protection of Hela cells from ER stress (FIG. 1) (HeLa cells; ER stress induced by 6 hour exposure to tunicamycin) |
| --- | --- | --- | --- | --- |
| > 33.3 | CCONC(=N)N/N=C/c1c(F)cccc1Cl [Compound 17, 2-(2-chloro-6-fluorobenzylidene)-N-ethoxyhydrazinecarboximidamide] | prevent INS1 insulinoma cell death | +++ |  |
| > 33.3 | CCO/N=C(\N)N/N=C/c1ccccc1Cl [Compound 10, 2-(2-chlorobenzylidene)-N′-ethoxyhydrazinecarboximidamide] |  | ++ |  |
| > 0.7 | CCONC(=N)N/N=C/c1c(Cl)cccc1Cl [Compound 11, 2-(2,6-dichlorobenzylidene)-N-ethoxyhydrazinecarboximidamide] | prevent INS1 insulinoma cell death | +++ |  |
| > 33.3 | CCCONC(=N)N/N=C/c1ccccc1Cl [Compound 12, 2-(2-chlorobenzylidene)-N-propoxyhydrazinecarboximidamide] | prevent INS1 insulinoma cell death | +++ | dose dependent protection |
